Experiments:
[1] = biological target: Human plasma kallikrein (Homo sapiens (Human), UniProt P03952); test: Kallikrein Assay (fluorogenic substrate Acetyl-K-P-R-AFC); format: biochemical; details: Plasma Kallikrein (PKal)
Outline: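 Ki is derived from IC50 with the Cheng-Prusoff equation, and IC50 from the inflection point of a four-parameter logistic curve. The rate of AFC release is read with 0.5 nM purified enzyme and […] substrate at room temperature or 37 °C.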

[2] = biological target: human Factor XIa (Homo sapiens (Human), UniProt P03951); test: Factor XIa Assay (fluorogenic substrate GPR-AFC); format: biochemical; details: Factor XIa (FXIa)
Chain of human Factor XIa (P03951 388-625 limits assumed): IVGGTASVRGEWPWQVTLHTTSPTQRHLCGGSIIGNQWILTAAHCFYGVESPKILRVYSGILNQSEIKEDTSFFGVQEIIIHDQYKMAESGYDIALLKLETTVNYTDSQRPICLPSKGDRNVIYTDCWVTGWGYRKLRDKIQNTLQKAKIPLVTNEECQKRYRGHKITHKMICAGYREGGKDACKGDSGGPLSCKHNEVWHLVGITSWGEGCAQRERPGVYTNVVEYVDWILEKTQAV
Chain of human Factor XIa (P03951 19-387 partner limits assumed): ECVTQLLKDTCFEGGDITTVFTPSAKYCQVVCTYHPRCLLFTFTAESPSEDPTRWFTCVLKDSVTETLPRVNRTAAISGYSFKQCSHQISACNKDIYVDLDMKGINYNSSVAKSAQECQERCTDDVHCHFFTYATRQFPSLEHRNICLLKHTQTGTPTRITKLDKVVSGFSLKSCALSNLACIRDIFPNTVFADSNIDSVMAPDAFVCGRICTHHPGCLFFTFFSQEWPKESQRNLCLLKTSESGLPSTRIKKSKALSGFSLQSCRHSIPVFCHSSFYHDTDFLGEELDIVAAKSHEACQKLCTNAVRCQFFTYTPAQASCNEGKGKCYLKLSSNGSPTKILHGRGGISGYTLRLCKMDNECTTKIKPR

Chain of Human plasma kallikrein (P03952 391-638): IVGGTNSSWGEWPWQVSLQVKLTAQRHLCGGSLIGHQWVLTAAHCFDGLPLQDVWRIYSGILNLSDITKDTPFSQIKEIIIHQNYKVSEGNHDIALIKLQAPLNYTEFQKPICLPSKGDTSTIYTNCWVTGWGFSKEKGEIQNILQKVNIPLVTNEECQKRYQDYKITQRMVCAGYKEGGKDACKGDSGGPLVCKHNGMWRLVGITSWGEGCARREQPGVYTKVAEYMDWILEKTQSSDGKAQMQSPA
Chain of Human plasma kallikrein (P03952 20-390 partner): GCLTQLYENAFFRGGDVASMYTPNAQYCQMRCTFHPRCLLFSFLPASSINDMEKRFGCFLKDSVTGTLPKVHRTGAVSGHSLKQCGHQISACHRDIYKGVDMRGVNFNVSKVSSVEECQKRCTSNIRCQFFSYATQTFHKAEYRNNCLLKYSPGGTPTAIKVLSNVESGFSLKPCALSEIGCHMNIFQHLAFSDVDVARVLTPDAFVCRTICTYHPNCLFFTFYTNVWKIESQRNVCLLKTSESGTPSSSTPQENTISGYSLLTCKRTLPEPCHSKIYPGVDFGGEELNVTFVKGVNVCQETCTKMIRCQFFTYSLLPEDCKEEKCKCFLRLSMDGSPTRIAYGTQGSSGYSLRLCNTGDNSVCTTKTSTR

Compound | IC50 [1] [nM] | IC50 [2] [nM]
Cc1nc(N2C[C@@H]3C[C@@H]3C2=O)ncc1[C@H](CO)n1cc(NC(=O)c2cncc(-c3c(C(F)F)ccc(Cl)c3F)n2)cn1 [Example 158, 6-(3-Chloro-6-(difluoromethyl)-2-fluorophenyl)-N-(1-((R)-2-hydroxy-1-(4-methyl-2-((1S,5R)-2-oxo-3-azabicyclo[3.1.0]hexan-3-yl)pyrimidin-5-yl)ethyl)-1H-pyrazol-4-yl)pyrazine-2-carboxamide] | 2720 | > 10000
Cc1cc(Cn2cc(NC(=O)c3nc(-c4c(C(F)F)ccc(Cl)c4F)cnc3C)cn2)nnc1N1C[C@H]2C[C@H]2C1=O [Example 83, 6-(3-Chloro-6-(difluoromethyl)-2-fluorophenyl)-3-methyl-N-(1-((5-methyl-6-((1R,5S)-2-oxo-3-azabicyclo[3.1.0]hexan-3-yl)pyridazin-3-yl)methyl)-1H-pyrazol-4-yl)pyrazine-2-carboxamide] | 3.4 | 259
Cc1cc(C(C)n2cc(NC(=O)c3nc(-c4c(C(F)F)ccc(Cl)c4F)cnc3C)cn2)cnc1N1C[C@H]2C[C@H]2C1=O (single isomer, unassigned) [Example 119, 6-(3-Chloro-6-(difluoromethyl)-2-fluorophenyl)-3-methyl-N-(1-((S or R)-1-(5-methyl-6-((1R,5S)-2-oxo-3-azabicyclo[3.1.0]hexan-3-yl)pyridin-3-yl)ethyl)-1H-pyrazol-4-yl)pyrazine-2-carboxamide] | 0.6 | 782
Cc1nc(N2C[C@H]3C[C@H]3C2=O)c(F)cc1C(C)n1cc(NC(=O)c2cncc(-c3c(C(F)F)ccc(Cl)c3F)n2)cn1 (stereo partly drawn) [Example 151, 6-(3-Chloro-6-(difluoromethyl)-2-fluorophenyl)-N-(1-(1-(5-fluoro-2-methyl-6-((1R.5S)-2-oxo-3-azabicyclo[3.1.0]hexan-3-yl)pyridin-3-yl)ethyl)-1H-pyrazol-4-yl)pyrazine-2-carboxamide] | 5.8 | > 10000
6-(3-Chloro-2-fluoro-6-(methylsulfonyl)phenyl)-N-(1-((S or R)-1-(4-methyl-2-((1R,SS)-2-oxo-3-azabicyclo[3.1.0]hexan-3-yl)pyrimidin-5-yl)ethyl)- 1H-pyrazol-4-yl)pyrazine-2-carboxamide [Example 86] | 36 | > 10000
Cc1ncc(-c2c(C(F)F)ccc(Cl)c2F)nc1C(=O)Nc1cnn([C@@H](C)c2cnc(N3C[C@H]4C[C@H]4C3=O)c(O)c2)c1 [Example 217, 6-(3-Chloro-6-(difluoromethyl)-2-fluorophenyl)-N-(1-((S)-1-(5-hydroxy-6-((1R,5S)-2-oxo-3-azabicyclo[3.1.0]hexan-3-yl)pyridin-3-yl)ethyl)-1H-pyrazol-4-yl)-3-methylpyrazine-2-carboxamide] | 14.9 | 4150
Cc1nc(C(C)n2cc(NC(=O)c3cncc(-c4c(C(F)(F)F)ccc(Cl)c4F)n3)cn2)cnc1N1C[C@H]2C[C@H]2C1=O (single isomer, unassigned) [Example 19, 6-(3-Chloro-2-fluoro-6-(trifluoromethyl)phenyl)-N-(1-((R or S)-1-(6-methyl-5-((1R,5S)-2-oxo-3-azabicyclo[3.1.0]hexan-3-yl)pyrazin-2-yl)ethyl)-1H-pyrazol-4-yl)pyrazine-2-carboxamide] | 3.7 | > 10000
Cc1nc(N2C[C@H]3C[C@H]3C2=O)ncc1Cn1cc(NC(=O)c2nc(-c3c(C(F)F)ccc(Cl)c3F)cc(=O)n2C)cn1 [Example 81, 4-(3-Chloro-6-(difluoromethyl)-2-fluorophenyl)-1-methyl-N-(1-((4-methyl-2-((1R,5S)-2-oxo-3-azabicyclo[3.1.0]hexan-3-yl)pyrimidin-5-yl)methyl)-1H-pyrazol-4-yl)-6-oxo-1,6-dihydropyrimidine-2-carboxamide] | 1.8 | 94
Cc1ncc(-c2c(C(F)F)ccc(Cl)c2F)nc1C(=O)Nc1cnn(C(C)c2cnc(N3C[C@H]4C[C@H]4C3=O)nc2)c1 (single isomer, unassigned) [Example 30, 6-(3-Chloro-6-(difluoromethyl)-2-fluorophenyl)-3-methyl-N-(1-((R or S)-1-(2-((1R,5S)-2-oxo-3-azabicyclo[3.1.0]hexan-3-yl)pyrimidin-5-yl)ethyl)-1H-pyrazol-4-yl)pyrazine-2-carboxamide] | 1.8 | 2830
Cc1c(C(C)n2cc(NC(=O)c3cncc(-c4c(OC(F)F)ccc(Cl)c4F)n3)cn2)cnc(N2C[C@H]3C[C@H]3C2=O)c1F (single isomer, unassigned) [Example 133, 6-(3-Chloro-6-(difluoromethoxy)-2-fluorophenyl)-N-(1-((S or R)-1-(5-fluoro-4-methyl-6-((1R,5S)-2-oxo-3-azabicyclo[3.1.0]hexan-3-yl)pyridin-3-yl)ethyl)-1i-pyrazol-4-yl)pyrazine-2-carboxamide] | 0.6 | 510
C[C@@H](c1cnc(N2C[C@H]3C[C@H]3C2=O)nc1)n1cc(NC(=O)c2nc(-c3c(C(F)F)ccc(Cl)c3F)cnc2C(O)C(F)(F)F)cn1 (single isomer, unassigned) [Example 177, 6-(3-Chloro-6-(difluoromethyl)-2-fluorophenyl)-N-(1-((S)-1-(2-((1R,5S)-2-oxo-3-azabicyclo[3.1.0]hexan-3-yl)pyrimidin-5-yl)ethyl)-1H-pyrazol-4-yl)-3-((R or S)-2,2,2-trifluoro-1-hydroxyethyl)pyrazine-2-carboxamide] | 47.8 | > 10000
COc1c(N2C[C@H]3C[C@H]3C2=O)ncc(C(C)n2cc(NC(=O)c3cncc(-c4c(C(F)F)ccc(Cl)c4F)n3)cn2)c1C (single isomer, unassigned) [Example 154, 6-(3-Chloro-6-(difluoromethyl)-2-fluorophenyl)-N-(1-((R or S)-1-(5-methoxy-4-methyl-6-((1R,5S)-2-oxo-3-azabicyclo[3.1.0]hexan-3-yl)pyridin-3-yl)ethyl)-1H-pyrazol-4-yl)pyrazine-2-carboxamide] | 0.3 | 661
Cc1ncc(-c2c(C#N)ccc(Cl)c2F)nc1C(=O)Nc1cnn(C(C)c2cnc(N3C[C@H]4C[C@H]4C3=O)c(F)c2C)c1 (single isomer, unassigned) [Example 136, 6-(3-Chloro-6-cyano-2-fluorophenyl)-N-(1-((R or S)-1-(5-fluoro-4-methyl-6-((1R,5S)-2-oxo-3-azabicyclo[3.1.0]hexan-3-yl)pyridin-3-yl)ethyl)-1H-pyrazol-4-yl)-3-methylpyrazine-2-carboxamide] | 0.2 | 591
Cc1ncc(-c2c(OC(F)F)ccc(Cl)c2F)nc1C(=O)Nc1cnn(C(C)c2cnc(N3C[C@H]4C[C@H]4C3=O)c(C)n2)c1 (single isomer, unassigned) [Example 123, 6-(3-Chloro-6-(difluoromethoxy)-2-fluorophenyl)-3-methyl-N-(1-((S or R)-1-(6-methyl-5-((1R,5S)-2-oxo-3-azabicyclo[3.1.0]hexan-3-yl)pyrazin-2-yl)ethyl)-1H-pyrazol-4-yl)pyrazine-2-carboxamide] | 1 | 364
Cc1cc(N2C[C@H]3C[C@H]3C2=O)nnc1Cn1cc(NC(=O)c2nc(-c3c(C(F)F)ccc(Cl)c3F)cnc2C)cn1 [Example 84, 6-(3-Chloro-6-(difluoromethyl)-2-fluorophenyl)-3-methyl-N-(1-((4-methyl-6-((1R,5S)-2-oxo-3-azabicyclo[3.1.0]hexan-3-yl)pyridazin-3-yl)methyl)-1H-pyrazol-4-yl)pyrazine-2-carboxamide] | 20.7 | 5710
